Patent publication US20120130117A1, “AROMATIC SULFONIUM SALT COMPOUND” (ADEKA CORPORATION, priority 2009, published 2012)

Assay: Solubility in polyvinylphenol/tetramethylammonium hydroxide (TMAH) aqueous solution
Type: physicochemical
Conditions: mass ratio of compound to polyvinylphenol in saturated solution; polyvinylphenol in 3% TMAH aqueous solution; visual check, left to stand one day
Protocol: In a screw-top tube were put 0.36 g of polyvinylphenol (S-2P from Maruzen Petrochemical Co., Ltd.; Mw: 5800) and 10.00 g of a 3% TMAH aqueous solution and heated to dissolve. A 2.00 g portion of the resulting solution was put in another screw-top tube, and a small amount of each of the trifluoromethanesulfonate of each of compound Nos. 1 and 5 and comparative compound No. 1 (intermediate No. 4 obtained in step 1 of Example 1-4) was added thereto and heated. A visual check was made to see whether the compound dissolved. This operation was repeated until saturation. The saturated solution was allowed to stand one day to make sure that no solid precipitated. The mass ratio of each compound to the polyvinylphenol of the saturated solution was taken as a parameter of solubility.

Solubility (%)	Compound
70%	O=C(c1ccccc1)c1ccc(Sc2ccc([S+](c3ccc(O)cc3)c3ccc(O)cc3)cc2)c(F)c1
28%	O=C(c1ccc(O)cc1)c1ccc(Sc2ccc([S+](c3ccc(F)cc3)c3ccc(F)cc3)cc2)c(F)c1
< 1%	O=C(c1ccccc1)c1ccc(Sc2ccc([S+](c3ccc(F)cc3)c3ccc(F)cc3)cc2)c(F)c1 [Comp. Compound No. 1, reference compound]
